The values below come from ChEMBL document CHEMBL6114992, “Design, synthesis, biological evaluation, and mechanism of action of new pyrazines as anticancer agents in vitro and in vivo” (Bioorg Med Chem, 2025).

The subject of assay [1] is KG-1. Briefly: Downregulation of Bcl-XL expression in human KG-1 cells incubated for 48 hrs by Western blot analysis. In kind it is functional, cell-based. To be noted: dose 0.5-2.5 µM. Background: Immunoblotting shows a protein as a band on a membrane.
In assay [2] the test system is KG-1. The assay can be described thus: Downregulation of c-Myc expression in human KG-1 cells incubated for 48 hrs by Western blot analysis. In kind it is functional, cell-based. To be noted: dose 0.5-2.5 µM.
The subject of assay [3] is U-937. The assay can be described thus: Induction of apoptosis in human U-937 cells assessed as late apoptotic cells at 2.5 uM incubated for 48 hrs by Annexin V-FITC/PI staining based flow cytometry (reference value: 1.96 %). In kind it is functional. In general terms: Flow cytometry measures light scatter and fluorescence of single cells or particles in a stream.
The subject of assay [4] is U-937. The assay can be described thus: Downregulation of XIAP expression in human U-937 cells incubated for 48 hrs by Western blot analysis. In kind it is functional, cell-based.
Assay [5] relates to U-937. The assay can be described thus: Induction of apoptosis in human U-937 cells assessed as early apoptotic cells at 1 uM incubated for 48 hrs by Annexin V-FITC/PI staining based flow cytometry (reference value: 2.72 %). In kind it is functional.
Assay [6] concerns U-937. Briefly: Downregulation of Bcl-2 expression in human U-937 cells incubated for 48 hrs by Western blot analysis. In kind it is functional, cell-based.
Assay [7] concerns U-937. Briefly: Induction of apoptosis in human U-937 cells assessed as change in mitochondrial membrane potential at 5 uM incubated for 48 hrs by JC-1 staining based flow cytometry (reference value: 2.20 %). In kind it is functional.
The subject of assay [8] is SK-OV-3. Briefly: Downregulation of GLI1 expression in human SK-OV-3 cells incubated for 48 hrs by Western blot analysis. In kind it is functional, cell-based. To be noted: dose 1-5 µM.
For assay [9], the system named is U-937. The assay can be described thus: Induction of apoptosis in human U-937 cells assessed as necrotic cells at 0.5 uM incubated for 48 hrs by Annexin V-FITC/PI staining based flow cytometry (reference value: 2.03 %). In kind it is functional.

On to `CCc1nccnc1C(=O)/C=C/c1ccccn1`, for which the Activity result in assay [1] and in assay [2] was “Dose-dependent-effect” each time.
`Cc1nccnc1C(=O)/C=C/c1cccc(C#N)c1`: the Activity in assay [3] is 9.73%; in assay [4], “Dose-dependent-effect”; in assay [5] it was 10.98%; in assay [6] it was “Dose-dependent-effect”; in assay [7], 21.63%; in assay [8] it was “Dose-dependent-effect”. For the same molecule, the Activity in [9] is reported as 2.64%.
